The source of these data is patent US20260165948A1, “A COMPOSITION FOR SKIN REGENERATION COMPRISING A CULTURE MEDIUM OF TONSIL-DERIVED MESENCHYMAL STEM CELLS, THE ANTIOXIDANT EFFECT OF WHICH IS ENHANCED BY N-ACETYLCYSTEINE (NAC)” (priority 2023, published 2026).

Data set [1] has as its system tonsil-derived human MSCs. The data set is described as follows: Determination of NAC pretreatment concentration (cell viability). The following applies: NAC 10 mM, pretreatment for 24 hours; FIG. 1. As to the method: In order to determine the concentration of NAC for pretreatment of tonsil-derived human MSCs, the tonsil-derived human MSCs were pretreated with NAC prepared in Example 1 at concentrations of 2, 4, 6, 8, 10, 15, and 100 mM for 24 hours, and then cell viability was evaluated.

Data set [2] has as its system tonsil-derived human MSCs (hMSC-T, passage 6). The data set is described as follows: Cell viability upon NAC treatment (WST, absorbance at 450 nm) with PYBR challenge. In kind it is cell-based. The following applies: NAC pretreatment 10 mM and 20 mM for 24 hours, then PYBR 5, 10, 20 μg/mL for 24 hours; FIG. 3. As to the method: In order to evaluate cell viability upon NAC treatment, tonsil-derived human MSCs (hMSC-T, passage 6) were seeded in a culture medium at a density of 1×10^3 cells/well. On the following day, NAC was treated at concentrations of 10 mM and 20 mM for 24 hours. Thereafter, the cells were washed with PBS and the medium was replaced, followed by treatment with PYBR at concentrations of 5, 10, and 20 μg/mL. After 24 hours, the cells were washed three times with PBS and transferred to fresh medium (100 μL) containing 10 μL of WST solution, and incubated at 37° C. for 2 hours in the dark. Absorbance at 450 nm was then measured to evaluate cell viability (FIG. 2). A group not treated with NAC was used as a positive control.

For data set [3] the test system is unchanged. Nature of the data set: Antioxidant activity (ROS assay) with PYBR challenge. In kind it is cell-based. To be noted: NAC pretreatment 10 mM and 20 mM for 24 hours, then PYBR 5, 10, 20 μg/mL for 24 hours; FIG. 5. As to the method: In order to evaluate antioxidant activity upon NAC treatment, tonsil-derived human MSCs (hMSC-T, passage 6) were seeded in a culture medium at a density of 1×10^4 cells/well. On the following day, NAC was treated at concentrations of 10 mM and 20 mM for 24 hours. Thereafter, the cells were washed with PBS and the medium was replaced, followed by treatment with PYBR at concentrations of 5, 10, and 20 μg/mL. After 24 hours, the cells were washed three times with PBS and incubated in 100 μL of ROS working solution at 37° C. for 30 minutes in the dark. Absorbance was then measured at 488/525 nm (FIG. 4). A group not treated with NAC was used as a positive control.

Molecules are shown by their SMILES.

Consider `CC(=O)NC(CS)C(=O)O` (stereo not drawn) [NAC, 2-acetamido-3-sulfanylpropanoic acid], for which the “cytotoxicity (cell viability)” value in data set [1] is given as “no cytotoxicity was observed”. Further, the “cell viability after PYBR treatment” value in data set [2] is on record as “significantly restored cell viability”. Moreover, the “ROS levels after PYBR treatment” value in data set [3] is “significantly reduced ROS levels”.
